Assay: xn = mol fraction of the nth substance listed
Settings: 298.15 K, Liquid

CCCCCCCCCl [1-chlorooctane] + CN1CCCC1=O
mass density [kg/m3]
Settings	x2 = 0.0969	x2 = 0.2014	x2 = 0.3097	x2 = 0.4076	x2 = 0.5021	x2 = 0.6022	x2 = 0.7005	x2 = 0.8007	x2 = 0.9008
100 kPa	878	888.8	901.2	913.6	926.9	942.5	959.8	979.6	1002.2
500 kPa	878.3	889.1	901.5	913.9	927.2	942.8	960	979.8	1002.4
1000 kPa	878.6	889.4	901.9	914.3	927.5	943.1	960.3	980.1	1002.7
1500 kPa	879	889.8	902.3	914.6	927.8	943.4	960.6	980.4	1003
2000 kPa	879.4	890.2	902.5	914.9	928.2	943.7	960.9	980.7	1003.2
2500 kPa	879.7	890.6	902.9	915.2	928.5	944.1	961.2	981	1003.5
2900 kPa	–	–	–	–	–	944.4	–	–	–
3000 kPa	880.2	890.9	903.3	915.6	928.8	–	961.6	981.3	1003.8
3400 kPa	880.5	–	–	–	–	–	–	–	–
3500 kPa	–	891.3	903.7	916	929.1	944.7	961.8	981.6	1004.1
4000 kPa	880.8	891.6	904	916.3	929.5	945	962.2	981.9	1004.4
4400 kPa	–	–	–	916.6	–	–	–	–	–
4500 kPa	881.2	892	904.4	–	929.8	945.3	962.4	982.2	1004.6
5000 kPa	881.6	892.3	904.7	917	930.2	945.7	962.8	982.5	1004.9
5500 kPa	882	892.7	905	917.3	930.4	946	963.1	982.8	1005.2
5900 kPa	–	–	–	–	930.8	–	–	–	–
6000 kPa	882.3	893.1	905.4	917.6	–	946.3	963.4	983.1	1005.5
6500 kPa	882.7	893.4	905.8	917.9	931.1	946.6	963.7	983.3	1005.8
7000 kPa	883.1	893.8	906.1	918.4	931.5	946.9	964	983.6	1006.1
7400 kPa	883.4	–	–	–	–	–	–	–	–
7500 kPa	–	894.1	906.4	918.6	931.8	947.2	964.3	983.9	1006.4
7900 kPa	883.7	–	–	–	–	–	–	–	–
8000 kPa	–	894.4	906.7	918.9	932.1	947.5	964.6	984.2	1006.6
8500 kPa	884.1	894.8	907	919.2	932.5	947.8	964.9	984.5	1007
9000 kPa	884.4	895.1	907.4	919.6	932.8	948.1	965.2	984.8	1007.2
9500 kPa	884.8	895.5	907.8	920	933.1	948.4	965.5	985.1	1007.5
9900 kPa	–	–	–	–	–	–	–	985.4	–
10000 kPa	885.3	895.9	908.1	920.4	933.5	948.8	965.9	–	1007.8
10400 kPa	–	–	–	–	–	–	–	–	1008
10500 kPa	885.6	896.2	908.5	920.7	933.8	949.1	966.1	985.7	–
10900 kPa	–	–	–	–	–	–	–	986	–
11000 kPa	886	896.5	908.8	921.1	934.2	949.5	966.5	–	1008.3
11400 kPa	–	–	–	–	–	–	966.7	–	–
11500 kPa	886.3	896.9	909.1	921.3	934.5	949.7	–	986.3	1008.6
11900 kPa	886.6	–	–	–	–	–	–	–	–
12000 kPa	–	897.3	909.5	921.6	934.8	950.1	967	986.5	1008.8
12500 kPa	887	897.6	909.8	922	935.1	950.4	967.3	986.8	1009.2
12900 kPa	–	–	–	–	–	950.6	–	–	–
13000 kPa	887.4	897.9	910.1	922.3	935.4	–	967.6	987.1	1009.4
13500 kPa	887.7	898.3	910.4	922.6	935.7	950.9	967.9	987.4	1009.7
13900 kPa	–	898.5	–	–	–	–	–	–	–
14000 kPa	888.1	–	910.8	922.9	936	951.2	968.2	987.7	1009.9
14400 kPa	–	898.9	–	–	–	–	–	–	–
14500 kPa	888.4	–	911.1	923.3	936.3	951.5	968.4	–	1010.1
14600 kPa	–	–	–	–	–	–	–	988	–
14900 kPa	–	–	–	–	–	–	–	–	1010.4
15000 kPa	888.7	899.2	911.4	923.5	936.6	951.8	968.8	988.2	–
15400 kPa	–	899.5	–	–	–	–	–	–	–
15500 kPa	889	–	911.7	923.9	936.9	952.1	969	988.4	1010.7
15900 kPa	–	–	–	–	937.2	–	969.3	–	–
16000 kPa	889.4	899.9	912.1	924.2	–	952.4	–	988.7	1011
16500 kPa	889.7	900.3	912.4	924.5	937.5	952.7	969.6	988.9	1011.2
17000 kPa	–	900.6	912.8	924.9	937.8	953	970	989.2	1011.5
17100 kPa	890.1	–	–	–	–	–	–	–	–
17500 kPa	890.4	900.9	913.1	925.2	938.1	953.2	970.2	989.5	1011.7
18000 kPa	890.7	901.2	913.4	925.5	938.4	953.5	970.4	989.7	1012
18500 kPa	891.1	901.5	913.7	925.7	938.7	953.8	970.8	990	1012.2
19000 kPa	891.4	901.9	914.1	926.1	939.1	954.2	971	990.5	1012.5
19400 kPa	–	902.2	–	926.4	–	–	971.4	–	–
19500 kPa	891.7	–	914.4	–	939.3	954.5	–	990.7	1012.8
20000 kPa	892.1	902.6	914.7	–	939.8	954.8	971.7	–	1013.2
20100 kPa	–	–	–	926.8	–	–	–	991	–

— the NIST ThermoML archive (doi:10.1021/je7003758)
